{
  "source": "patent US5428016A",
  "about": "“Antimicrobial peptide and antimicrobial agent” (Morinaga Milk Industry Co., Ltd., priority 1991, dated 1995)",
  "format_in_all_cases": "cell-based",
  "key": {"Escherichia coli IID 861": {"test_system": "Escherichia coli IID 861", "method": "(§1) The antimicrobial peptides (samples Nos. 1 to 15) were prepared using the same methods as in Examples 1 to 15, and antimicrobial peptide derivatives (samples Nos. 16 to 18) were prepared using the same methods as in Examples 16 to 18, and were sterilized by filtration using a 0.45 μm Millex filter prior to use.\n(§2) Various microbial strains shown in Table 4 in the logarithmic phase of growth were inoculated in a peptone medium which consisted of 1% Bactopeptone (manufactured by Difco Laboratory Co.) at a cell concentration of 10^6 /ml, and 160 μl thereof were incubated for 17 hours at 37° C. (or 30° C.) using a 96-hole microtiter plate (manufactured by Falcon Co.). Each sample was added to each medium at a ratio of 0, 1.5, 3, 6, 12, 25, 50, 100, 125 or 250 μM. The growth of the various microorganisms in the various samples at various concentrations was studied by measuring the light absorption at 660 nm.\n(§3) The microorganisms used in this experiment are available from The Medical School Laboratories of Tokyo University (IID), Japanese Physicochemical Laboratories (JCM), Japanese International Dairy Federation (IDF), and the storage at the laboratory of the applicant (MMI)."}, "[1]": {"test_system": "Escherichia coli MMI 0111", "test": "Antimicrobial spectrum, minimum inhibitory concentration", "method": "as §1, §2, §3"}, "[2]": {"test_system": "Listeria monocytogenes IDF 1b", "conditions": "17 h", "method": "as §1, §2, §3"}, "[3]": {"test_system": "Staphylococcus aureus JCM 2151", "conditions": "JCM 2151, 17 h", "method": "as §1, §2, §3"}, "[4]": {"test_system": "Pseudomonas aeruginosa MMI 603", "conditions": "MMI 603, 17 h", "method": "as §1, §2, §3"}, "[5]": {"test_system": "Klebsiella pneumoniae JCM 1662 T", "conditions": "JCM 1662, 17 h", "method": "as §1, §2, §3"}},
  "note": "Where no end group is shown, it is not given here.",
  "data": [
    {"substance": "KTRRWQWRMKK-NH2 [Sample No. 18, Lys-Thr-Arg-Arg-Trp-Gln-Trp-Arg-Met-Lys-Lys-NH2]", "values": [
      {"measurement": "minimum inhibitory concentration (MIC)", "setting": "Escherichia coli IID 861", "result": 3, "unit": "µM"},
      {"measurement": "minimum inhibitory concentration (MIC)", "setting": "[1]", "result": 6, "unit": "µM"}
    ]},
    {"substance": "KRNMRK [Sample No. 9, Lys-Arg-Asn-Met-Arg-Lys]", "values": [
      {"measurement": "minimum inhibitory concentration (MIC)", "setting": "[2]", "result": "up to 100 μM"},
      {"measurement": "minimum inhibitory concentration (MIC)", "setting": "[3]", "result": "up to 100 μM"}
    ]},
    {"substance": "RRWQWR [Sample No. 6, Arg-Arg-Trp-Gln-Trp-Arg]", "values": [
      {"measurement": "minimum inhibitory concentration (MIC)", "setting": "[2]", "result": "up to 100 μM"},
      {"measurement": "minimum inhibitory concentration (MIC)", "setting": "[3]", "result": "up to 100 μM"}
    ]},
    {"substance": "KTVSWR [Sample No. 8, Lys-Thr-Val-Ser-Trp-Arg]", "values": [
      {"measurement": "minimum inhibitory concentration (MIC)", "setting": "[2]", "result": "up to 100 μM"},
      {"measurement": "minimum inhibitory concentration (MIC)", "setting": "[3]", "result": "up to 100 μM"}
    ]},
    {"substance": "RWQEMK [Sample No. 10, Arg-Trp-Gln-Glu-Met-Lys]", "values": [
      {"measurement": "minimum inhibitory concentration (MIC)", "setting": "[2]", "result": "up to 100 μM"},
      {"measurement": "minimum inhibitory concentration (MIC)", "setting": "[3]", "result": "up to 100 μM"}
    ]},
    {"substance": "RRRQWR [Sample No. 7, Arg-Arg-Arg-Gln-Trp-Arg]", "values": [
      {"measurement": "minimum inhibitory concentration (MIC)", "setting": "[2]", "result": "up to 100 μM"},
      {"measurement": "minimum inhibitory concentration (MIC)", "setting": "[3]", "result": "up to 100 μM"}
    ]},
    {"substance": "KTFQWQRNMRK [Sample No. 14, Lys-Thr-Phe-Gln-Trp-Gln-Arg-Asn-Met-Arg-Lys]", "values": [
      {"measurement": "minimum inhibitory concentration (MIC)", "setting": "[4]", "result": "up to 50 μM"},
      {"measurement": "minimum inhibitory concentration (MIC)", "setting": "[2]", "result": "up to 12 μM"},
      {"measurement": "minimum inhibitory concentration (MIC)", "setting": "[5]", "result": "up to 50 μM"},
      {"measurement": "minimum inhibitory concentration (MIC)", "setting": "[3]", "result": "up to 12 μM"}
    ]},
    {"substance": "KTRRWQWRMKK [Sample No. 11, Lys-Thr-Arg-Arg-Trp-Gln-Trp-Arg-Met-Lys-Lys]", "values": [
      {"measurement": "minimum inhibitory concentration (MIC)", "setting": "[4]", "result": "up to 50 μM"},
      {"measurement": "minimum inhibitory concentration (MIC)", "setting": "[2]", "result": "up to 12 μM"},
      {"measurement": "minimum inhibitory concentration (MIC)", "setting": "[5]", "result": "up to 50 μM"},
      {"measurement": "minimum inhibitory concentration (MIC)", "setting": "[3]", "result": "up to 12 μM"}
    ]},
    {"substance": "KTLRWQNEMRK [Sample No. 15, Lys-Thr-Leu-Arg-Trp-Gln-Asn-Glu-Met-Arg-Lys]", "values": [
      {"measurement": "minimum inhibitory concentration (MIC)", "setting": "[4]", "result": "up to 50 μM"},
      {"measurement": "minimum inhibitory concentration (MIC)", "setting": "[2]", "result": "up to 12 μM"},
      {"measurement": "minimum inhibitory concentration (MIC)", "setting": "[5]", "result": "up to 50 μM"},
      {"measurement": "minimum inhibitory concentration (MIC)", "setting": "[3]", "result": "up to 12 μM"}
    ]},
    {"substance": "KTVSWQTYMKK [Sample No. 13, Lys-Thr-Val-Ser-Trp-Gln-Thr-Tyr-Met-Lys-Lys]", "values": [
      {"measurement": "minimum inhibitory concentration (MIC)", "setting": "[4]", "result": "up to 50 μM"},
      {"measurement": "minimum inhibitory concentration (MIC)", "setting": "[2]", "result": "up to 12 μM"},
      {"measurement": "minimum inhibitory concentration (MIC)", "setting": "[5]", "result": "up to 50 μM"},
      {"measurement": "minimum inhibitory concentration (MIC)", "setting": "[3]", "result": "up to 12 μM"}
    ]},
    {"substance": "KSRRRQWRMKK [Sample No. 12, Lys-Ser-Arg-Arg-Arg-Gln-Trp-Arg-Met-Lys-Lys]", "values": [
      {"measurement": "minimum inhibitory concentration (MIC)", "setting": "[4]", "result": "up to 50 μM"},
      {"measurement": "minimum inhibitory concentration (MIC)", "setting": "[2]", "result": "up to 12 μM"},
      {"measurement": "minimum inhibitory concentration (MIC)", "setting": "[5]", "result": "up to 50 μM"},
      {"measurement": "minimum inhibitory concentration (MIC)", "setting": "[3]", "result": "up to 12 μM"}
    ]}
  ]
}
